Results on 17 compounds are retold here after US8193191B2, “Urotensin II receptor antagonists” (Janssen Pharmaceutica N.V., priority 2006, dated 2012).

Assay [1] deals with T1, endogenous human UII receptor (Homo sapiens, UniProt Q9UKP6).
T1 sequence (Q9UKP6 1-389): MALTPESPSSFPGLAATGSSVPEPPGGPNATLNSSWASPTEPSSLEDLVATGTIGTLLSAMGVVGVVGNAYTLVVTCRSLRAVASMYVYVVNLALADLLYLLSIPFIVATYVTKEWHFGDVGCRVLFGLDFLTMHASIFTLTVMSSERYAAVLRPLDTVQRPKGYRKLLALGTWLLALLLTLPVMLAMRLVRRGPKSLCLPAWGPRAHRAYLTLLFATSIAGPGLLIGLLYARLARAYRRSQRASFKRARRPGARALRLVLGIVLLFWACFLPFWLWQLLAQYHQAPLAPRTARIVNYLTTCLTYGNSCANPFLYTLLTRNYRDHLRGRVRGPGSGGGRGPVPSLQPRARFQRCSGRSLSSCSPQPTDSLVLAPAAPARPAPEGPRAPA
Put plainly: Human Radioligand Binding Assay ((^125I)-U-II binding to human skeletal muscle myoblasts).

Assay [2] deals with T2, rat GPR14 (U-II receptor) (Rattus norvegicus, UniProt P49684).
T2 construct: expressed in transfected cells
T2 sequence (P49684 1-386): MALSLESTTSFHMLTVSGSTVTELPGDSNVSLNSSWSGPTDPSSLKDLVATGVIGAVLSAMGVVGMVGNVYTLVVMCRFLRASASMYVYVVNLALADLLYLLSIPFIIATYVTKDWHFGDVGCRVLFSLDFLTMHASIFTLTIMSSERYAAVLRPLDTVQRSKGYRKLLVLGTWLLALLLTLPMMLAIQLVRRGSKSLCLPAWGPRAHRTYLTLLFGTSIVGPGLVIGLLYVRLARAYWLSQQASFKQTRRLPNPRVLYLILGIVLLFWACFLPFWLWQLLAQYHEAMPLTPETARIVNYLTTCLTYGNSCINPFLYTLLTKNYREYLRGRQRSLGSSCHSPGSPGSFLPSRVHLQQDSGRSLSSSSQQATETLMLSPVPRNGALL
The assay is described as follows: Rat UII Calcium Mobilization FLIPR Assay. The class given is cell-based. As to conditions: average value for the compound tested; read-out: Rat UII FLIPR Average IC50. In a few lines:
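Fluorescent calcium signals were recorded at room temperature (23° C) by FLIPR. Stable rat U-II receptor CHO lines had been dye-loaded for 1 h at 37° C in pH 7.4 HBSS containing 20 mM HEPES, 0.1% BSA and 2.5 mM probenecid.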
Background: A change in cytosolic calcium serves as a functional read-out for many receptors and channels.

In assay [3] the target is T3, Human UII receptor, 6D9 human rhabdomyosarcoma cells (Homo sapiens, UniProt Q9UKP6).
T3 construct: 6D9: isolated by dilution subcloning of RMS13 cells, ATCC® Number: CRL-2061; host or cells: 6D9 human rhabdomyosarcoma cells (subclone of RMS13)
T3 sequence (Q9UKP6 1-389): T1 sequence (Q9UKP6 1-389)
The assay is described as follows: Human UII Calcium Mobilization Assay. The class given is cell-based. As to conditions: average value, FLIPR TETRA, read-out: Human UII Ca^+ Mobilization Average IC50. On the procedure:
6D9 human rhabdomyosarcoma cells were seeded into tissue culture treated 384-well black-walled clear bottom plates (3712, Corning Incorporated, Corning, N.Y.) at 8,000 cells/well in 25 μL of culture medium, and maintained in an incubator (5% CO2 at 37° C.) for 22 hrs prior to the calcium mobilization assay. 25 μL of dye solution was added to the wells such that the final liquid volume before agonist/antagonist treatment was 50 μL for all assays. The cell plates were incubated at 37° C. for 45 minutes and the fluorescence intensity was measured on a Fluorometric Imaging Plate Reader (FLIPR^TETRA, Molecular Devices, Sunnyvale, Calif.).
Antagonist and agonist U-II were added at room temperature on the FLIPR^TETRA, and the fluorescence intensity before and after addition was measured over a period of 4 minutes. The dye incubation time and temperature as well as instrument setting was adjusted so the fluorescence intensity could be compared between plates on the same day. EC50 and IC50 were analyzed using GraphPad Prism 4 software (GraphPad Software Inc., San Diego, Calif.).
Materials and reagent Preparation: Human Rhabdomyosarcoma cells (6D9: isolated by dilution subcloning of RMS13 cells, ATCC® Number: CRL-2061, American Type Culture Collection ATCC, Manassas, Va.) was maintained in RPMI-1640 medium (30-2001, ATCC, Manassas, Va.) supplemented with 10% (v/v) Fetal Bovine Serum (SH30071.03, Hyclone, Logan, Utah).
Dye preparation: BD™ Calcium Assay Kit (80500-301, BD Biosciences, Rockville, Md.) was prepared according to the manufacture's instruction in 1× Hanks' balanced salt solution (HBSS, 21-023-CV, Mediatech, Inc. Herndon, Va.) containing 20 mM HEPES buffer (25-060-CI, Mediatech, Inc. Herndon, Va.). Final dye loading conditions included 1.25 mM probenecid (P36400, Invitrogen, Carlsbad, Calif.) and 0.01% FBS.
Urantide (PUT-3639-PI, Peptide International, Louisville, Ky.) was prepared in water at 5 mM. For assays, U-II agonist, U-II antagonist and urantide were diluted with HBSS/HEPES containing 0.01% FBS.
Test compounds were dissolved in DMSO at 10 mM concentration. The serial dilutions were carried out in HBSS/HEPES. The highest final DMSO concentration was at 0.1%.

Where only a bound is given, the exact number is not on record here.

Broadly, the Ki is a measure of affinity in units of concentration, obtained from inhibition or displacement. As a reminder, the IC50 is the concentration needed to halve the response being measured. For `COc1ccc(CN2C(=O)c3cccc(N4CCN(Cc5ccoc5)CC4)c3C2=O)cc1OC` [Cpd 78, 2-(3,4-dimethoxy-benzyl)-4-(4-furan-3-ylmethyl-piperazin-1-yl)-isoindole-1,3-dione], the Ki in assay [1] is 2600 nM. The IC50 in assay [2] worked out at 270 nM.
Compound `COc1ccc(CN2C(=O)c3cccc(N4CCN(Cc5cccnc5)CC4)c3C2=O)cc1OC` [Cpd 79, 2-(3,4-dimethoxy-benzyl)-4-(4-pyridin-3-ylmethyl-piperazin-1-yl)-isoindole-1,3-dione] yielded a Ki in assay [1] of more than 10000 nM. Further, the 50% inhibitory concentration (IC50) in assay [2] was determined as 1200 nM.
On to `COc1ccc(CN2C(=O)c3cccc(N4CCN(CC5CCCC5)CC4)c3C2=O)cc1OC` [Cpd 80, 4-(4-cyclopentylmethyl-piperazin-1-yl)-2-(3,4-dimethoxy-benzyl)-isoindole-1,3-dione], for which the Ki in assay [1] is more than 10000 nM. The IC50 in assay [2] was 1300 nM.
For `COc1ccc(CN2C(=O)c3cccc(N4CCN(Cc5cccs5)CC4)c3C2=O)cc1OC` [Cpd 81, 2-(3,4-dimethoxy-benzyl)-4-(4-thiophen-2-ylmethyl-piperazin-1-yl)-isoindole-1,3-dione], the inhibition constant Ki in assay [1] is more than 10000 nM. Besides, in assay [2], the concentration for half-maximal inhibition (IC50) stood at 1400 nM.
On the same counts, the results for `COc1ccc(CN2C(=O)c3cccc(N4CCN(Cc5ccsc5)CC4)c3C2=O)cc1OC` [Cpd 83, 2-(3,4-dimethoxy-benzyl)-4-(4-thiophen-3-ylmethyl-piperazin-1-yl)-isoindole-1,3-dione] are 1600 nM and 230 nM.
On the same counts, the results for `COc1ccc(CN2C(=O)c3cccc(N4CCN(Cc5ccccc5O)CC4)c3C2=O)cc1OC` [Cpd 85, 2-(3,4-dimethoxy-benzyl)-4-[4-(2-hydroxy-benzyl)-piperazin-1-yl]-isoindole-1,3-dione] are 3600 nM and 2200 nM.
The compound `C/C=C(\C)CN1CCN(c2cccc3c2C(=O)N(Cc2ccc(OC)c(OC)c2)C3=O)CC1` [Cpd 86, (E)-2-(3,4-dimethoxy-benzyl)-4-[4-(2-methyl-but-2-enyl)-piperazin-1-yl]-isoindole-1,3-dione] gave an inhibitory constant (Ki) in assay [1] of 1300 nM. In addition, in assay [2], the IC50 worked out at 290 nM.
Take `COc1ccc(CN2C(=O)c3cccc(N4CCN(C5C6CC7CC(C6)CC5C7)CC4)c3C2=O)cc1OC` (stereo not shown) [Cpd 87, 4-(4-adamantan-2-yl-piperazin-1-yl)-2-(3,4-dimethoxy-benzyl)-isoindole-1,3-dione]: the half-maximal inhibitory concentration (IC50) was determined as 1500 nM in assay [3] and 480 nM in assay [2].
Taken in the same sequence, the figures for `COc1ccc(C(CCNC(=O)Cc2ccncc2)N2C(=O)c3cccc(N4CCN([C@H](C)c5ccccc5)CC4)c3C2=O)cc1OC` (stereo partly drawn) [Cpd 103, N-(3-(3,4-dimethoxy-phenyl)-3-{1,3-dioxo-4-[4-(1R)-(1-phenyl-ethyl)-piperazin-1-yl]-1,3-dihydro-isoindol-2-yl}-propyl)-2-pyridin-4-yl-acetamide] were 590 nM and 35 nM.
`COc1ccc([C@@H](CCCNS(=O)(=O)c2ccc(C)s2)N2C(=O)c3cccc(N4CCN([C@H](C)c5ccccc5)CC4)c3C2=O)cc1OC` [Cpd 126, (R)-5-methyl-thiophene-2-sulfonic acid (4-(3,4-dimethoxy-phenyl)-4-{1,3-dioxo-4-[4-(1R)-(1-phenyl-ethyl)-piperazin-1-yl]-1,3-dihydro-isoindol-2-yl}-butyl)-amide]: the Ki in assay [1] worked out at 340 nM. For the same compound, in assay [2], the concentration for half-maximal inhibition (IC50) was found to be 81 nM.
`COc1ccc([C@@H](CCCNS(=O)(=O)c2cnc(C)n2C)N2C(=O)c3cccc(N4CCN([C@H](C)c5ccccc5)CC4)c3C2=O)cc1OC` [Cpd 127, (R)-2,3-dimethyl-3H-imidazole-4-sulfonic acid (4-(3,4-dimethoxy-phenyl)-4-{1,3-dioxo-4-[4-(1R)-(1-phenyl-ethyl)-piperazin-1-yl]-1,3-dihydro-isoindol-2-yl}-butyl)-amide]: the half-maximal inhibitory concentration (IC50) in assay [3] was determined as 350 nM; in assay [2], 6.4 nM.
The compound `COc1ccc([C@@H](CCCNS(=O)(=O)c2sc(NC(C)=O)nc2C)N2C(=O)c3cccc(N4CCN([C@H](C)c5ccccc5)CC4)c3C2=O)cc1OC` [Cpd 130, (R)-N-[5-(4-(3,4-dimethoxy-phenyl)-4-{1,3-dioxo-4-[4-(1R)-(1-phenyl-ethyl)-piperazin-1-yl]-1,3-dihydro-isoindol-2-yl}-butylsulfamoyl)-4-methyl-thiazol-2-yl]-acetamide] registered a Ki in assay [1] of more than 300 nM. For the same compound, the IC50 in assay [2] was 54 nM.
For `COc1ccc([C@@H](CCCNS(=O)(=O)c2cc(C)sc2C)N2C(=O)c3cccc(N4CCN([C@H](C)c5ccccc5)CC4)c3C2=O)cc1OC` [Cpd 131, (R)-2,5-dimethyl-thiophene-3-sulfonic acid (4-(3,4-dimethoxy-phenyl)-4-{1,3-dioxo-4-[4-(1R)-(1-phenyl-ethyl)-piperazin-1-yl]-1,3-dihydro-isoindol-2-yl}-butyl)-amide], in assay [1], the Ki is more than 300 nM. In addition, the half-maximal inhibitory concentration (IC50) in assay [2] is 120 nM.
Taken in the same sequence, the figures for `COc1ccc([C@@H](CCCNS(=O)(=O)C2CCS(=O)(=O)C2)N2C(=O)c3cccc(N4CCN([C@H](C)c5ccccc5)CC4)c3C2=O)cc1OC` (stereo partly drawn) [Cpd 133, (R)-1,1-dioxo-tetrahydro-1λ^6-thiophene-3-sulfonic acid (4-(3,4-dimethoxy-phenyl)-4-{1,3-dioxo-4-[4-(1R)-(1-phenyl-ethyl)-piperazin-1-yl]-1,3-dihydro-isoindol-2-yl}-butyl)-amide] were 59 nM and 14 nM.
`CCn1cc(S(=O)(=O)NCCC[C@H](c2ccc(OC)c(OC)c2)N2C(=O)c3cccc(N4CCN([C@H](C)c5ccccc5)CC4)c3C2=O)cn1` [Cpd 134, (R)-1-ethyl-1H-pyrazole-4-sulfonic acid (4-(3,4-dimethoxy-phenyl)-4-{1,3-dioxo-4-[4-(1R)-(1-phenyl-ethyl)-piperazin-1-yl]-1,3-dihydro-isoindol-2-yl}-butyl)-amide] displayed a Ki in assay [1] of 68 nM. Further, in assay [2], the IC50 was found to be 19 nM.
On the same counts, the results for `COc1ccc([C@@H](CCCNS(=O)(=O)c2cn(C)nc2C(F)(F)F)N2C(=O)c3cccc(N4CCN([C@H](C)c5ccccc5)CC4)c3C2=O)cc1OC` [Cpd 135, (R)-1-methyl-3-trifluoromethyl-1H-pyrazole-4-sulfonic acid (4-(3,4-dimethoxy-phenyl)-4-{1,3-dioxo-4-[4-(1R)-(1-phenyl-ethyl)-piperazin-1-yl]-1,3-dihydro-isoindol-2-yl}-butyl)-amide] are 190 nM and 56 nM.
Turning to `COc1ccc([C@@H](CCNC(=O)OCc2ccccc2)N2C(=O)c3cccc(N4CCN([C@H](C)c5ccccc5)CC4)c3C2=O)cc1OC` [Cpd 216, (R)-(3-(3,4-dimethoxy-phenyl)-3-{1,3-dioxo-4-[4-(1R)-(1-phenyl-ethyl)-piperazin-1-yl]-1,3-dihydro-isoindol-2-yl}-propyl)-carbamic acid benzyl ester], the inhibition constant (Ki) in assay [1] stood at 130 nM. Besides, the half-maximal inhibitory concentration (IC50) in assay [2] turned out to be 64 nM.
